According to the kinase profiling compilation of Christmann-Franck et al. (2016):
“And” between values parts separate entries of the source, which are not always exact repeats. Equal entries are not always repeated.

How the values were obtained:
Assay in all cases: radiometric filter-binding kinase assay, Kinase HotSpot
Conditions in all cases: compound 0.5 µM; ATP 10 µM
[1] = target: AKT2 (human) (UniProt P31751)
[2] = target: BLK (human) (UniProt P51451)
[3] = target: BMX (human) (UniProt P51813)
[4] = target: CAMK2G (human) (UniProt Q13555)
[5] = target: CDK5 CDK5R1 p35 (human) (UniProt Q00535+Q15078)
[6] = target: CDK6 CCND1 (human) (UniProt Q00534+P24385)
[7] = target: CDK9 CCNT1 (human) (UniProt P50750+O60563)
[8] = target: CSNK1G1 (human) (UniProt Q9HCP0)
[9] = target: DDR2 (human) (UniProt Q16832)
[10] = target: DMPK (human) (UniProt Q09013)
[11] = target: EPHA7 (human) (UniProt Q15375)
[12] = target: EPHA8 (human) (UniProt P29322)
[13] = target: EPHB4 (human) (UniProt P54760)
[14] = target: FGFR2 (human) (UniProt P21802)
[15] = target: FGFR4 (human) (UniProt P22455)
[16] = target: GRK5 (human) (UniProt P34947)
[17] = target: GSK3A (human) (UniProt P49840)
[18] = target: HIPK1 (human) (UniProt Q86Z02)
[19] = target: HIPK3 (human) (UniProt Q9H422)
[20] = target: INSR (human) (UniProt P06213)
[21] = target: IRAK1 (human) (UniProt P51617)
[22] = target: MAPK13 (human) (UniProt O15264)
[23] = target: MAPK14 (human) (UniProt Q16539)
[24] = target: MATK (human) (UniProt P42679)
[25] = target: MELK (human) (UniProt Q14680)
[26] = target: MYLK (human) (UniProt Q15746)
[27] = target: NLK (human) (UniProt Q9UBE8)
[28] = target: PAK2 (human) (UniProt Q13177)
[29] = target: PAK7 (human) (UniProt Q9P286)
[30] = target: PLK2 (human) (UniProt Q9NYY3)
[31] = target: PLK3 (human) (UniProt Q9H4B4)
[32] = target: PRKACA (human) (UniProt P17612)
[33] = target: PRKCG (human) (UniProt P05129)
[34] = target: PRKG1 (human) (UniProt Q13976)
[35] = target: SGK2 (human) (UniProt Q9HBY8)
[36] = target: SLK (human) (UniProt Q9H2G2)
[37] = target: SRC (human) (UniProt P12931)
[38] = target: SRPK3 (human) (UniProt Q9UPE1)
[39] = target: STK25 (human) (UniProt O00506)
[40] = target: STK33 (human) (UniProt Q9BYT3)
[41] = target: TEC (human) (UniProt P42680)
[42] = target: TTK (human) (UniProt P33981)

Sequence of PRKG1 (human) (Q13976 whole entry, looked up): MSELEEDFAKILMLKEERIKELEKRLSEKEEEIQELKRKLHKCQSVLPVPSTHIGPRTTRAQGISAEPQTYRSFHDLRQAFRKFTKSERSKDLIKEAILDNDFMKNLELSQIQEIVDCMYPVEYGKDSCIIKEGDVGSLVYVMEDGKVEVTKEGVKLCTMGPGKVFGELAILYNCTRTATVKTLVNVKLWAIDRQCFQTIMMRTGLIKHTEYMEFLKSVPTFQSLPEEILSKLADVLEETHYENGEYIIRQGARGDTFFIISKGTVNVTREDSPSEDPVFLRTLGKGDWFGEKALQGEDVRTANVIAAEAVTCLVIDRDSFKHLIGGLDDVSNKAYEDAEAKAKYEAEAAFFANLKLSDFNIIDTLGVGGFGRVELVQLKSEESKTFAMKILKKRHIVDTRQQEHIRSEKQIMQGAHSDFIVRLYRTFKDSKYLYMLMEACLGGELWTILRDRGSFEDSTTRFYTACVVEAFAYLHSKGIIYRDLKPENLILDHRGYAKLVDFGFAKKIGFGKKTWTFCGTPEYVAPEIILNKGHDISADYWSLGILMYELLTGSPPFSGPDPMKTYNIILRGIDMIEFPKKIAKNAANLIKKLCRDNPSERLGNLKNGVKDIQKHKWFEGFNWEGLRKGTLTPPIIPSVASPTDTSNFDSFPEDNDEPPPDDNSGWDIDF
Sequence of SGK2 (human) (Q9HBY8 whole entry, looked up): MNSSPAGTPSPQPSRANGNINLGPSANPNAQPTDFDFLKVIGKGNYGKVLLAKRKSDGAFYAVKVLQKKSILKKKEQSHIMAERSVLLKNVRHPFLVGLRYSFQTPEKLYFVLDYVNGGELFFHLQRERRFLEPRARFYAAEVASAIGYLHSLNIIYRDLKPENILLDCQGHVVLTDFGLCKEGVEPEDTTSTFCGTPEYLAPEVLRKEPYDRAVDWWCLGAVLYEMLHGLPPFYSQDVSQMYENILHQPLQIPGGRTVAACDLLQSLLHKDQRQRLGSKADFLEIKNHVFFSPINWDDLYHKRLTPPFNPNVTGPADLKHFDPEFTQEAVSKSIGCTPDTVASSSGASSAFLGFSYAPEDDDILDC
Sequence of CDK9 CCNT1 (human) (O60563 whole entry, looked up): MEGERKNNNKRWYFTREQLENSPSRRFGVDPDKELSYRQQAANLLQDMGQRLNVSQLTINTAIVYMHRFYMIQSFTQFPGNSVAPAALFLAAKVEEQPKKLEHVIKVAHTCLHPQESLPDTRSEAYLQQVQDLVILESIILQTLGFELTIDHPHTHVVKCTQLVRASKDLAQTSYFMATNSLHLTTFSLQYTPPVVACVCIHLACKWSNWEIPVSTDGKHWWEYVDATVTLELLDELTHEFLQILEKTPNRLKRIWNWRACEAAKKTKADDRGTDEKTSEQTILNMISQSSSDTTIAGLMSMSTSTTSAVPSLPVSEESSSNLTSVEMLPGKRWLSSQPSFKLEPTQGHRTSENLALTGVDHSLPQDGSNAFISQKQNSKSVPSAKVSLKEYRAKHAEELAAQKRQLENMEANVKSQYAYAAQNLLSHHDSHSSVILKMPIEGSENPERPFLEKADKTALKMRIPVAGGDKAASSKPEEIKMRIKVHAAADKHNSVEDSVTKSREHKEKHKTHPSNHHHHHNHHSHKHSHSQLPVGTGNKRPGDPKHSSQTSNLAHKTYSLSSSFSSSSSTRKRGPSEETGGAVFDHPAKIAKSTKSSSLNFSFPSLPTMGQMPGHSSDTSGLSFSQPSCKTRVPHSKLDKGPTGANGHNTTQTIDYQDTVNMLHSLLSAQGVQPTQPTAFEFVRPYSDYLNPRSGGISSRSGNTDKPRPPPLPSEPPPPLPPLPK
Sequence of CDK9 CCNT1 (human) (P50750 whole entry, looked up): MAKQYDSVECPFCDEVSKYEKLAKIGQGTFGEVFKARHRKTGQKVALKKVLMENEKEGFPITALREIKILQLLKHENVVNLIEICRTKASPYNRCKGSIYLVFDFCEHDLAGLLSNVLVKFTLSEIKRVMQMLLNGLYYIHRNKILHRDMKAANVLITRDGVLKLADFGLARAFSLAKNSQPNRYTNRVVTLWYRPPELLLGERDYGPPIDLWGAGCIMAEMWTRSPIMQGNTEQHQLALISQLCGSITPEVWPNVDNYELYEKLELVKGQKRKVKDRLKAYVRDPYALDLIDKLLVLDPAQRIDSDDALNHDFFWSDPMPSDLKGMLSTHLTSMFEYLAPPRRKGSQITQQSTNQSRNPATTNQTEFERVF
Sequence of FGFR4 (human) (P22455 whole entry, looked up): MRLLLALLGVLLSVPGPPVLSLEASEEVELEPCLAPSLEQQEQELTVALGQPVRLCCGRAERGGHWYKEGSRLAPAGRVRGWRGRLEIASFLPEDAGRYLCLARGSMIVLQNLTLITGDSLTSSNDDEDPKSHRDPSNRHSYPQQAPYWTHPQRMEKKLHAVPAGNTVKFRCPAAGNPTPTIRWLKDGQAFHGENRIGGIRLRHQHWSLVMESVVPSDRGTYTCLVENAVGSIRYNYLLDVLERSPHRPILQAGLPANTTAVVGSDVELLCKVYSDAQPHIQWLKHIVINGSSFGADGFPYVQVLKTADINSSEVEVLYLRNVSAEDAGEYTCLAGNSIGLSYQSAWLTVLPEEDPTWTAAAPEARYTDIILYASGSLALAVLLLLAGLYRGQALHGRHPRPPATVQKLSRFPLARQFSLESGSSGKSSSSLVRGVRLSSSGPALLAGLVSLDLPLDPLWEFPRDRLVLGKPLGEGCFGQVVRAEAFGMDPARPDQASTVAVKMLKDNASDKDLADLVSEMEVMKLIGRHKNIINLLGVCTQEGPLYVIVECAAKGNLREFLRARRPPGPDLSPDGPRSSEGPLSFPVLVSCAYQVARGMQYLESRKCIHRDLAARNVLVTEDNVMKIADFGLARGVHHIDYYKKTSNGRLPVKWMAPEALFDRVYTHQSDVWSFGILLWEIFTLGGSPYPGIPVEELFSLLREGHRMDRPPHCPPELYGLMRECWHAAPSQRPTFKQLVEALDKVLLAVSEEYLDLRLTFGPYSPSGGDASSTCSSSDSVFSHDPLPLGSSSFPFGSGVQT
Sequence of MAPK13 (human) (O15264 whole entry, looked up): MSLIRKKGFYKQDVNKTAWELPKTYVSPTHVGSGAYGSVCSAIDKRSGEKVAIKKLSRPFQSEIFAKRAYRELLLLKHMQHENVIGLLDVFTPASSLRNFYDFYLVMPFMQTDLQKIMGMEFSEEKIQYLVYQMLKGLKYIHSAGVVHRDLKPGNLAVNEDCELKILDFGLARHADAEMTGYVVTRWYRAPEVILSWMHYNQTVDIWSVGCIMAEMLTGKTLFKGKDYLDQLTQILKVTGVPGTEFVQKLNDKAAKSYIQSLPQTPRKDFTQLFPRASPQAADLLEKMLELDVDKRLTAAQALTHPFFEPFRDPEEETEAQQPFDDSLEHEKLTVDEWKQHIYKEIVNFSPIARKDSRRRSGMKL
Sequence of MELK (human) (Q14680 whole entry, looked up): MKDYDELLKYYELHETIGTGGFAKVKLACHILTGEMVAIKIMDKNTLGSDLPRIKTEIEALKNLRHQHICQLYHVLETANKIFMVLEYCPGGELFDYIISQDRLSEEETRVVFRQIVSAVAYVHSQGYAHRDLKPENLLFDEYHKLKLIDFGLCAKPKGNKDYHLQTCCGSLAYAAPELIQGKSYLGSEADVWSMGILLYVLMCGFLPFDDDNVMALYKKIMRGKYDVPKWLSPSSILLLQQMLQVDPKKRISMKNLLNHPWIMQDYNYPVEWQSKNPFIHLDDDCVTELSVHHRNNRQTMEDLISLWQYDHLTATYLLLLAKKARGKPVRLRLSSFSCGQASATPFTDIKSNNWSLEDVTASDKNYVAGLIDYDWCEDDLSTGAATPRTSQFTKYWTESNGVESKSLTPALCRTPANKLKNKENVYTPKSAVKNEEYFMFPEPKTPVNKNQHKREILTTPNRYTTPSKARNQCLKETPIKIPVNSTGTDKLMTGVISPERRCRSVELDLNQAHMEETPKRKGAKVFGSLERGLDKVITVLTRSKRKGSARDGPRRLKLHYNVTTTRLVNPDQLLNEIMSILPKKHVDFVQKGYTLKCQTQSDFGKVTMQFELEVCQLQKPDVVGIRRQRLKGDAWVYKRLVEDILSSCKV
Sequence of BMX (human) (P51813 whole entry, looked up): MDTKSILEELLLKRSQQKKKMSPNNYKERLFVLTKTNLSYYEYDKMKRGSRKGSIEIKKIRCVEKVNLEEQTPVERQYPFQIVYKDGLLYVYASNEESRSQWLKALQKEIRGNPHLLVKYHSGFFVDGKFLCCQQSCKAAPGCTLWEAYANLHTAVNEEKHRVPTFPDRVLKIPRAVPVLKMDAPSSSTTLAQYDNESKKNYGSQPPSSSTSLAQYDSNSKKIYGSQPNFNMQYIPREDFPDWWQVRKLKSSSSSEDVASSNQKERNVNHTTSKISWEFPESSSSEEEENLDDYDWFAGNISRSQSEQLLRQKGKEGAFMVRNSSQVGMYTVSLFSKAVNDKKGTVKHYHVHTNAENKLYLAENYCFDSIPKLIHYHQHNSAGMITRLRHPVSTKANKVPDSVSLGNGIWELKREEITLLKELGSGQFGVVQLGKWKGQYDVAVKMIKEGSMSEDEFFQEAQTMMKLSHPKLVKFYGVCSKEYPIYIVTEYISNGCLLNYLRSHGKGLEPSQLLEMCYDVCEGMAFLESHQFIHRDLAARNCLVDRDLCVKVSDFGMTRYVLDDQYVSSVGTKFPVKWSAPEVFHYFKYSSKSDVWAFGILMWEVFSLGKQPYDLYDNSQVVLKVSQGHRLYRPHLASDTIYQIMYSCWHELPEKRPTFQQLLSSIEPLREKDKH
Sequence of MAPK14 (human) (Q16539 whole entry, looked up): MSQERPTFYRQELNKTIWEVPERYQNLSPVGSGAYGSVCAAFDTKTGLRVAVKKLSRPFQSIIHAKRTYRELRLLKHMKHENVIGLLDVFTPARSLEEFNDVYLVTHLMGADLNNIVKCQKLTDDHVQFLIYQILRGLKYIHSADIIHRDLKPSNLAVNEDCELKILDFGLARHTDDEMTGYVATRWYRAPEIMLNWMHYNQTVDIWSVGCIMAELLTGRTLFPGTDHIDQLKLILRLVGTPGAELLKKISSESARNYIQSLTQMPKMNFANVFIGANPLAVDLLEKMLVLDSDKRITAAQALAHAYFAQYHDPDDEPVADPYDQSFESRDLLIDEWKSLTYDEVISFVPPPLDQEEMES

O=C1Nc2ccccc2/C1=C1/Nc2ccccc2/C1=N\OCCC(O)CO (centres undefined)
residual activity [1]: 90.1%
residual activity [2]: 39.1%
residual activity [3]: 40.2%
residual activity [4]: 35.3%
residual activity [5]: 14.3%
residual activity [6]: 27.7%
residual activity [7]: 52.5%
residual activity [8]: 89.2%
residual activity [9]: 86.1%
residual activity [10]: 99.5%
residual activity [11]: 71.4%
residual activity [12]: 91.9%
residual activity [13]: 72.2%
residual activity [14]: 76%
residual activity [15]: 65.7%
residual activity [16]: 84.6%
residual activity [17]: 7.31%
residual activity [18]: 96%
residual activity [19]: 66.2%
residual activity [20]: 44.9%
residual activity [21]: 34.5%
residual activity [22]: 94.8%
residual activity [23]: 101%
residual activity [24]: 101%
residual activity [25]: 13.1%
residual activity [26]: 32.3%
residual activity [27]: 101%
residual activity [28]: 82.1%
residual activity [29]: 81%
residual activity [30]: 105%
residual activity [31]: 102%
residual activity [32]: 89.1%
residual activity [33]: 92%
residual activity [34]: 45.1% and 53%
residual activity [35]: 75.8%
residual activity [36]: 59.9%
residual activity [37]: 22.6%
residual activity [38]: 59.5%
residual activity [39]: 74%
residual activity [40]: 22.3%
residual activity [41]: 101%
residual activity [42]: 46.1%

O=C1NC(=O)/C(=C\c2ccc3nccnc3c2)S1
residual activity [1]: 101%
residual activity [2]: 99.4%
residual activity [3]: 98.6%
residual activity [4]: 101%
residual activity [5]: 97.9%
residual activity [6]: 97.5%
residual activity [7]: 87.7%
residual activity [8]: 101%
residual activity [9]: 93.4%
residual activity [10]: 112%
residual activity [11]: 96.7%
residual activity [12]: 94.2%
residual activity [13]: 101%
residual activity [14]: 95%
residual activity [15]: 98%
residual activity [16]: 105%
residual activity [17]: 88.8%
residual activity [18]: 104%
residual activity [19]: 92.4%
residual activity [20]: 108%
residual activity [21]: 85.5%
residual activity [22]: 99.1%
residual activity [23]: 92.9%
residual activity [24]: 90.5%
residual activity [25]: 90.7%
residual activity [26]: 97.1%
residual activity [27]: 92.4%
residual activity [28]: 98.4%
residual activity [29]: 97.4%
residual activity [30]: 95.7%
residual activity [31]: 97.7%
residual activity [32]: 97.2%
residual activity [33]: 105%
residual activity [34]: 113% and 98.3%
residual activity [35]: 99.3%
residual activity [36]: 96.3%
residual activity [37]: 102%
residual activity [38]: 91.4%
residual activity [39]: 99.3%
residual activity [40]: 66.3%
residual activity [41]: 117%
residual activity [42]: 102%
